Assay results as given in patent US20050101595A1, “N-containing cycloalkyl-substituted amino-thiazole derivatives and pharmaceutical compositions for inhibiting cell proliferation and methods for their use” (PFIZER INC., priority 2003, published 2005).
Counter-ions that a name gives are not always drawn.

How the values were obtained:
HCT-116 cell line = test: Inhibition of cell growth, tetrazolium salt (MTT) assay; format: cell-based; settings: Homo sapiens, MTT; for inhibition at 0.175 µM: HCT-116, HCT-116 cells, compound at 0.175 uM; for IC50: HCT-116, 120 h, first HCT-116 column (c4), three to five days, read-out: HCT-116 IC50
How it was run: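 McCoy's 5A cultures; 4 h pre-incubation; compound dilutions in 0.5% v/v DMSO; 3–5 d, 37° C, 5% CO2; MTT 0.2 mg/mL final, 4 h; formazan dissolved in DMSO, A540; vs 0.5% DMSO vehicle.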

CDK2/Cyclin A = CDK2/Cyclin A (Homo sapiens, UniProt P24941); test: Inhibition of CDK2/Cyclin A Retinoblastoma Kinase Activity; format: biochemical; settings: for inhibition at 0.05 µM: read-out: % inhibition of CDK2 (@ 0.05 μM), compound at 0.05 μM; for Ki: apparent Ki, CDK2/proteolyzed cyclin A, Rb fragment substrate, 25 μM ATP
How it was run: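 Radiometric filter-binding readout of phosphate transfer to an Rb substrate fragment by purified CDK2/truncated cyclin A at 10 or 19 nM. Run at pH 7.4 with 25 μM ATP, 30 °C, 60–75 min, linear rates; background without enzyme subtracted, Ki from competitive-inhibition models.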

SMILES | inhibition at 0.175 µM (HCT-116 cell line) [%] | inhibition at 0.05 µM (CDK2/Cyclin A) [%] | IC50 (HCT-116 cell line) [nM] | Ki (CDK2/Cyclin A) [nM]
Cc1ccccc1CNCCCS(=O)(=O)N1CCC(Nc2nc(N)c(C(=O)c3c(F)cccc3F)s2)CC1 [Example V27] | 86 | 93 |  | 
NC(=O)CCNCCCS(=O)(=O)N1CCC(Nc2nc(N)c(C(=O)c3c(F)cccc3F)s2)CC1 [Example V122] | 32 | 79 |  | 
Nc1nc(NC2CCN(S(=O)(=O)CCCNCc3cccnc3)CC2)sc1C(=O)c1c(F)cccc1F [Example V6] | 1 | 80 |  | 
CC(NCCCS(=O)(=O)N1CCC(Nc2nc(N)c(C(=O)c3c(F)cccc3F)s2)CC1)c1ccccc1 (centres unmarked) [Example V53] | 75 | 91 |  | 
Nc1nc(NC2CCN(S(=O)(=O)CCCNCc3ccccc3F)CC2)sc1C(=O)c1c(F)cccc1F [Example V26] | 76 | 92 |  | 
Nc1nc(NC2CCN(S(=O)(=O)CCCNCCOCCO)CC2)sc1C(=O)c1c(F)cccc1F [Example V11] | 11 | 74 |  | 
CN(CCCS(=O)(=O)N1CCC(Nc2nc(N)c(C(=O)c3c(F)cccc3F)s2)CC1)CC(N)=O [Example V138] | 0 | 76 |  | 
CSCCCNCCCS(=O)(=O)N1CCC(Nc2nc(N)c(C(=O)c3c(F)cccc3F)s2)CC1 [Example V127] | 13 | 87 |  | 
Cc1nnc(CN(C)CCCS(=O)(=O)N2CCC(Nc3nc(N)c(C(=O)c4c(F)cccc4F)s3)CC2)o1 [Example V176] | 0 | 73 |  | 
CN1CCCN(CCCS(=O)(=O)N2CCC(Nc3nc(N)c(C(=O)c4c(F)cccc4F)s3)CC2)CC1 [Example V30] | 8 | 78 |  | 
Nc1nc(NC2CCN(S(=O)(=O)CCCNC3CCCCC3)CC2)sc1C(=O)c1c(F)cccc1F [Example K55, {4-Amino-2-[1-(3-cyclohexylamino-propane-1-sulfonyl)-piperidin-4-ylamino]-thiazol-5-yl}-(2,6-difluoro-phenyl)-methanone] |  |  | 680 | 8
C=C(C)CN(C)CCCS(=O)(=O)N1CCC(Nc2nc(N)c(C(=O)c3c(F)cccc3F)s2)CC1 [Example V177, (4-Amino-2-{[1-({3-[methyl(2-methyl-2-propen-1-yl)amino]propyl}sulfonyl)-4-piperidinyl]amino}-1,3-thiazol-5-yl)(2,6-difluorophenyl)methanone.] |  |  | 90 | 17
Nc1nc(NC2CCN(S(=O)(=O)CCCNCc3ncccc3O)CC2)sc1C(=O)c1c(F)cccc1F [Example V165] | 6 | 93 |  | 
Nc1nc(NC2CCN(S(=O)(=O)CCCN3CCNC(=O)C3)CC2)sc1C(=O)c1c(F)cccc1F [Example V166] | 3 | 72 |  | 
CCCN(CCO)CCCS(=O)(=O)N1CCC(Nc2nc(N)c(C(=O)c3c(F)cccc3F)s2)CC1 [Example V106] | 11 | 82 |  | 
CN(CCCS(=O)(=O)N1CCC(Nc2nc(N)c(C(=O)c3c(F)cccc3F)s2)CC1)CC(O)CO (centres unmarked) [Example V124] | 9 | 80 |  | 
Cc1cc(NCCCS(=O)(=O)N2CCC(Nc3nc(N)c(C(=O)c4c(F)cccc4F)s3)CC2)no1 [Example V44] | 17 | 80 |  | 
Nc1nc(NC2CCN(S(=O)(=O)CCCNc3cc(O)c4ccccc4n3)CC2)sc1C(=O)c1c(F)cccc1F [Example V140] | 0 | 93 |  | 
NC(=O)CNCCCS(=O)(=O)N1CCC(Nc2nc(N)c(C(=O)c3c(F)cccc3F)s2)CC1 [Example V17] | 0 | 78 |  | 
CC(O)CNCCCS(=O)(=O)N1CCC(Nc2nc(N)c(C(=O)c3c(F)cccc3F)s2)CC1 (centres unmarked) [Example V42] | 4 | 79 |  | 
CCc1ccnc(NCCCS(=O)(=O)N2CCC(Nc3nc(N)c(C(=O)c4c(F)cccc4F)s3)CC2)c1 [Example V111] | 5 | 86 |  | 
Nc1nc(NC2CCN(S(=O)(=O)CCCN3CCCC(F)(F)C3)CC2)sc1C(=O)c1c(F)cccc1F [Example V167] | 0 | 83 |  | 

SMILES | inhibition at 0.175 µM (HCT-116 cell line) [%] | inhibition at 0.05 µM (CDK2/Cyclin A) [%] | IC50 (HCT-116 cell line) [nM] | Ki (CDK2/Cyclin A) [nM]
Nc1nc(NC2CCN(S(=O)(=O)CCCNCC(O)CO)CC2)sc1C(=O)c1c(F)cccc1F (centres unmarked) [Example V48] | 7 | 79 |  | 
Nc1nc(NC2CCN(S(=O)(=O)CCCN3CCC(F)(F)CC3)CC2)sc1C(=O)c1c(F)cccc1F [Example V168] | 37 | 83 |  | 
CC(=O)NC1CCN(CCCS(=O)(=O)N2CCC(Nc3nc(N)c(C(=O)c4c(F)cccc4F)s3)CC2)C1 (centres unmarked) [Example V41] | 14 | 71 |  | 
Nc1nc(NC2CCN(S(=O)(=O)CCCN3CCC(O)C3)CC2)sc1C(=O)c1c(F)cccc1F (centres unmarked) [Example V68] | 10 | 85 |  | 
CC(C)OCCNCCCS(=O)(=O)N1CCC(Nc2nc(N)c(C(=O)c3c(F)cccc3F)s2)CC1 [Example V131] | 5 | 82 |  | 
Cc1ccc(CNCCCS(=O)(=O)N2CCC(Nc3nc(N)c(C(=O)c4c(F)cccc4F)s3)CC2)cc1 [Example V80] | 21 | 91 |  | 
CN(CCC#N)CCCS(=O)(=O)N1CCC(Nc2nc(N)c(C(=O)c3c(F)cccc3F)s2)CC1 [Example V66] | 10 | 82 |  | 
Cc1cccc(NCCCS(=O)(=O)N2CCC(Nc3nc(N)c(C(=O)c4c(F)cccc4F)s3)CC2)n1 [Example V62] | 0 | 91 |  | 
CN(CCCS(=O)(=O)N1CCC(Nc2nc(N)c(C(=O)c3c(F)cccc3F)s2)CC1)C1CCCCC1 [Example K61, (4-Amino-2-{1-[3-(cyclohexyl-methyl-amino)-propane-1-sulfonyl]-piperidin-4-ylamino}-thiazol-5-yl)-(2,6-difluoro-phenyl)-methanone. Acetic Acid Salt] |  |  | 170 | 8
Nc1nc(NC2CCN(S(=O)(=O)CCCNCc3ccc[nH]c3=O)CC2)sc1C(=O)c1c(F)cccc1F [Example V169] | 25 | 76 |  | 
CC1CCN(CCCS(=O)(=O)N2CCC(Nc3nc(N)c(C(=O)c4c(F)cccc4F)s3)CC2)CC1 [Example V102] | 89 | 80 |  | 
Nc1nc(NC2CCN(S(=O)(=O)CCCNCc3ccco3)CC2)sc1C(=O)c1c(F)cccc1F [Example V24] | 48 | 89 |  | 
CCN(CC)CCCS(=O)(=O)N1CCC(Nc2nc(N)c(C(=O)c3c(F)cccc3F)s2)CC1 [Example V57] | 33 | 77 |  | 
Nc1nc(NC2CCN(S(=O)(=O)CCCNCCO)CC2)sc1C(=O)c1c(F)cccc1F [Example V91] | 13 | 81 |  | 
CCN(CC)CCN(C)CCCS(=O)(=O)N1CCC(Nc2nc(N)c(C(=O)c3c(F)cccc3F)s2)CC1 [Example V33] | 16 | 76 |  | 
CN(CCO)CCCS(=O)(=O)N1CCC(Nc2nc(N)c(C(=O)c3c(F)cccc3F)s2)CC1 [Example V148] | 2 | 83 |  | 
Nc1nc(NC2CCN(S(=O)(=O)CCCNC3CCSCC3)CC2)sc1C(=O)c1c(F)cccc1F [Example V161] | 2 | 88 |  | 
Nc1nc(NC2CCN(S(=O)(=O)CCCNCCN3CCCC3)CC2)sc1C(=O)c1c(F)cccc1F [Example V9] | 13 | 78 |  | 
Nc1nc(NC2CCN(S(=O)(=O)CCCNCC3CCCO3)CC2)sc1C(=O)c1c(F)cccc1F (centres unmarked) [Example V20] | 9 | 81 |  | 
Nc1nc(NC2CCN(S(=O)(=O)CCCNCCSCCO)CC2)sc1C(=O)c1c(F)cccc1F [Example V125] | 5 | 87 |  | 
Nc1nc(NC2CCN(S(=O)(=O)CCCNCc3ccccc3)CC2)sc1C(=O)c1c(F)cccc1F [Example V12] | 69 | 93 |  | 
